Legend:
rat [1] = conditions: Combined chronic toxicity/carcinogenicity; sprague dawley; Oral; Feed; dose end: 104 week; group: systemic; systemic / in life observation / body weight / body weight gain + systemic / pathology microscopic / kidney / concretion + systemic / …
rat [2] = conditions: Multigenerational reproductive toxicity study, sprague dawley, Oral, Feed, dose end: 2 generation
rabbit [3] = conditions: Prenatal developmental toxicity study, new zealand white, Oral, Gavage/Intubation, dose end: 19 GD, group: maternal
dog [4] = conditions: Chronic toxicity, beagle, Oral, Feed, dose end: 106 week, group: systemic
dog [5] = conditions: Chronic toxicity, beagle, Oral, Feed, dose end: 12 month
rabbit [6] = conditions: Prenatal developmental toxicity study; new zealand white; Oral; Gavage/Intubation; dose end: 19 GD; group: maternal; reproductive / reproductive performance / postimplantation loss / postimplantation loss + reproductive / reproductive performance / …
mouse = conditions: Carcinogenicity, cd1, Oral, Feed, dose end: 18 month, group: systemic
dog [7] = conditions: Subchronic oral toxicity in nonrodent, beagle, Feed, dose end: 90 day, group: systemic
rat [8] = conditions: Combined chronic toxicity/carcinogenicity, fischer, Oral, Feed, dose end: 2 year, group: systemic
rat [9] = conditions: Multigenerational reproductive toxicity study, sprague dawley, Oral, Feed, dose end: 2 generation; remark: listed apart in the source
[10] = group: offspring, systemic / in life observation / body weight / offspring (pup) weight
[11] = group: parental, systemic / in life observation / body weight / body weight + systemic / in life observation / body weight / body weight gain + systemic / in…
[12] = reproductive / reproductive performance / resorptions / resorptions + systemic / in life observation / food consumption / food consumption
[13] = systemic / pathology microscopic / bone marrow / atrophy + systemic / pathology microscopic / kidney / congestion + systemic / pathology …
[14] = group: reproductive, reproductive / reproductive performance / estrous cycle / periodicity
[15] = group: systemic, systemic / in life observation / body weight / body weight + systemic / in life observation / body weight / body weight gain + systemic / in…
[16] = group: systemic, systemic / pathology microscopic / uterus / estrus
[17] = systemic / organ weight / liver / nos + systemic / pathology microscopic / liver / eosinophilic focus + systemic / pathology microscopic / …
[18] = systemic / in life observation / body weight / body weight gain
[19] = systemic / in life observation / body weight / body weight gain + systemic / in life observation / food consumption / food consumption
[20] = systemic / pathology gross / stomach / discolored + systemic / pathology gross / stomach / foci + systemic / pathology gross / stomach / …
[21] = group: offspring, systemic / in life observation / body weight / offspring (pup) weight + developmental / offspring survival late / lactation index / …
[22] = group: parental, systemic / in life observation / food consumption / food consumption + systemic / in life observation / body weight / body weight + systemic…
[23] = group: reproductive, reproductive / offspring survival early / birth index / live birth index

Work on `CSc1nc(NC(C)C)nc(NC(C)C)n1` [Prometryn] yielded an LEL (rat [1]) of 60.9 mg/kg/day, an LOAEL (rat [1]) of 60.9 mg/kg/day and an NEL (rat [1]) of 29.4 mg/kg/day. For the same molecule, the NOAEL (rat [1]) was 29.4 mg/kg/day, the LEL (rat [2]; [10]) was 47.8 mg/kg/day and the LOAEL (rat [2]; [10]) was 47.8 mg/kg/day. It also gave an NEL (rat [2]; [10]) of 0.6 mg/kg/day, an NOAEL (rat [2]; [10]) of 0.6 mg/kg/day and an LEL (rat [2]; [11]) of 47.8 mg/kg/day. For the same molecule, the LOAEL (rat [2]; [11]) was 47.8 mg/kg/day, the NEL (rat [2]; [11]) was 0.6 mg/kg/day and the NOAEL (rat [2]; [11]) was 0.6 mg/kg/day. The LOAEL (rabbit [3]; [12]) was 72 mg/kg/day, the NEL (rabbit [3]; [12]) was 12 mg/kg/day and the NOAEL (rabbit [3]; [12]) was 12 mg/kg/day. For the same molecule, the LEL (rabbit [3]; reproductive / reproductive performance / resorptions / resorptions + systemic / in life observation / food consumption / food consumption…) was 72 mg/kg/day, the LOAEL (dog [4]; [13]) was 37.5 mg/kg/day and the NEL (dog [4]; [13]) was 0.375 mg/kg/day. It also gave an NOAEL (dog [4]; [13]) of 3.75 mg/kg/day and an LEL (dog [4]; systemic / pathology microscopic / liver / cellular alteration + systemic / pathology microscopic / liver / depletion glycogen + systemic / …) of 3.75 mg/kg/day.
With `CC(C)N(C(=O)CCl)c1ccccc1` [Propachlor] the LEL (dog [5]; [14]) was 0.625 mg/kg/day, the LOAEL (dog [5]; [14]) was > 25 mg/kg/day and the NEL (dog [5]; [14]) was < 0.625 mg/kg/day. For the same molecule, the NOAEL (dog [5]; [14]) was ≥ 25 mg/kg/day, the LOAEL (dog [5]; [15]) was 25 mg/kg/day and the NOAEL (dog [5]; [15]) was 6.25 mg/kg/day. The LEL (dog [5]; [16]) was 0.625 mg/kg/day, the NEL (dog [5]; [16]) was < 0.625 mg/kg/day and the LEL (rabbit [6]) was 50 mg/kg/day. The LOAEL (rabbit [6]) was 50 mg/kg/day, the NEL (rabbit [6]) was 5 mg/kg/day and the NOAEL (rabbit [6]) was 5 mg/kg/day. The LEL (mouse; systemic / organ weight / liver / nos) was 75 mg/kg/day, the NEL (mouse; systemic / organ weight / liver / nos + systemic / organ weight / kidney / nos + systemic / pathology microscopic / liver / hypertrophy) was 14.6 mg/kg/day and the LOAEL (mouse; [17]) was 223 mg/kg/day. For the same molecule, the NOAEL (mouse; [17]) was 75 mg/kg/day, the LEL (dog [7]; [18]) was 2.5 mg/kg/day and the NEL (dog [7]; [18]) was < 2.5 mg/kg/day. For the same molecule, the LOAEL (dog [7]; [19]) was > 37.5 mg/kg/day, the NOAEL (dog [7]; [19]) was ≥ 37.5 mg/kg/day and the LEL (rat [8]; systemic / clinical chemistry / aspartate aminotransferase (ast/sgot) / aspartate aminotransferase (ast/sgot)) was 16.1 mg/kg/day. The LOAEL (rat [8]; [20]) was 125 mg/kg/day, the NEL (rat [8]; [20]) was 5.4 mg/kg/day and the NOAEL (rat [8]; [20]) was 53.6 mg/kg/day. For the same molecule, the LEL (rat [9]; [10]) was 69.6 mg/kg/day, the LOAEL (rat [9]; [10]) was 69.6 mg/kg/day and the NEL (rat [9]; [21]) was 7.1 mg/kg/day. For the same molecule, the NOAEL (rat [9]; [21]) was 7.1 mg/kg/day, the LEL (rat [9]; [22]) was 69.6 mg/kg/day and the LOAEL (rat [9]; [22]) was 69.6 mg/kg/day. For the same molecule, the NEL (rat [9]; [22]) was 7.1 mg/kg/day, the NOAEL (rat [9]; [22]) was 7.1 mg/kg/day and the LEL (rat [9]; [23]) was 141 mg/kg/day. The LOAEL (rat [9]; [23]) was > 141 mg/kg/day and the NOAEL (rat [9]; [23]) was ≥ 141 mg/kg/day.

— EPA's ToxRefDB 2
